Where two headings read alike, the source gives them in different places.
How the values were obtained:
HepG2 = experiment: cells; type: cell-based, human; conditions: for IC50 / viability at 10 µM: Homo sapiens; for IC50: HepG2, 72 h, read-out: IC50 HepG2; for viability at 10 µM: HepG2, 72 h, vs vehicle-treated controls, read-out: Percentage viability HepG2; for SR(HepG2/THLE2) safety ratio: percentage viability at 10 μM normalized with THLE2
Experimental: (§1) Cells were plated at 5000-7000 cells/per well and incubated for 24 h before treatment. […] Cell Titer-Glo (Promega, Madison, Wis.) assay was performed according to manufacturer's instruction with luminescence detected on SpectraMax M5 (Molecular Devices, Sunnyvale, Calif.). Data was expressed as percentage of viability vs. vehicle-treated controls.
(§2) The anti-cancer potential of these compounds against HCC were tested using a phenotypic assay where compounds were screened over 100-fold concentration range (0.1 to 10 μM) using two representative liver cancer cell lines, HepG2 and HuH7. Additionally, THLE2 was employed as normal hepatocyte cell line to differentiate anti-cancer potential from non-specific cytotoxicities.
(§3) Cell viability assay shown in FIG. 2 was analyzed by Prism5 for the determination of respective IC50 values.
(§4) Cell viability was determined as described previous in Table 7. Percentage viability at 10 μM treatments was determined and safety ratios were calculated by normalizing survival in HCC cell lines to THLE2.

HuH7 = experiment: cells; type: cell-based, human; conditions: for IC50 / viability at 10 µM: Homo sapiens; for IC50: Huh-7, 72 h, read-out: IC50 HuH7; for viability at 10 µM: Huh-7, 72 h, vs vehicle-treated controls, read-out: Percentage viability HuH7; for SR(HuH7/THLE2) safety ratio: percentage viability at 10 μM normalized with THLE2
Experimental: as §1, §2, §3, §4

THLE2 = experiment: Cell viability assay (Cell Titer-Glo), THLE2 normal hepatocyte cell line; type: cell-based; conditions: Homo sapiens, THLE-2, 72 h, read-out: IC50 THLE2
Experimental: as §1, §2, §3

NQO1 = experiment: Induction of NQO1 (QR) activity in Hepa1c1c7 cells
Hepa1c1c7 cells = experiment: MTT growth inhibition / cytotoxicity on Hepa1c1c7 cells; type: cell-based, murine; conditions: Mus musculus, Hepa-1c1c7, 48 h, highest concentration tested 25 μM
Experimental: (§5) The antiproliferative activity of the compounds according to the invention was determined by the MTT assay on the following cell lines: MCF7 (human breast cancer cell line), HCT116 (human colon cancer cell line), and CCL186 (normal human diploid embryonic lung fibroblast). […] MCF7 and CCL186 cells were cultured in Eagle's Minimum Essential Medium (EMEM) with 1 mM sodium pyruvate, 1.5 g/L sodium bicarbonate, 2 mM L-glutamine supplemented with 10% FBS and 0.01% antibiotics. HCT116 cells were cultured in McCoy's 5A Medium with 2.2 g/L sodium bicarbonate supplemented with […] and 0.01% antibiotics. Cells were plated at the following densities: 10000 cells/well (MCF7), 4000 cells/well (HCT116), 5000 cells/well (CCL186). They were grown for 24 h in a 96-well plate, with 100 μl of corresponding medium in each well. The test compounds were prepared in DMSO and diluted to a series of concentrations with medium. Not more than 1% DMSO (final concentration) was present in each well. The test compounds were incubated with the cells for 72 h, after which 100 μl MTT solution (0.5 mg/ml in 1× PBS) was added for 3 h and the cells lysed to release the formazan product. The latter was dissolved in DMSO (150 μl) and absorbance determined within 30 min at 590 nm on a microtitre plate reader. Cell survival was given by the expression:
(§6) Cell survival (%)=[(Acells+test compound−Ablank)/(Auntreated cells−Ablank)]×100
(§7) where A is the absorbance of formazan measured at 590 nm in the test (Acells+test compound), control (Auntreated cells) or blank (Ablank) wells. Each concentration of test compound was evaluated on 3 separate occasions. […] The MTT assay was also carried out on Hepa1c1c7 cells for the purpose of determining cytotoxicity of test compounds. The same procedure was adopted except that the incubation period of compound with cells was 48 h, instead of 72 h.

[1] = tested on: MCF7 (human breast cancer cell line); experiment: Antiproliferative MTT assay, MCF7; type: cell-based; conditions: 72 h incubation, mean ± SD, n = 3, read-out: IC50 MCF-7
Experimental: as §5, §6, §7
The compounds were initially screened at a fixed concentration of 10 μM on the human cancer cell lines HCT116 and MCF7 cells.

[2] = tested on: CCL186 (normal human diploid embryonic lung fibroblast); experiment: Antiproliferative MTT assay, CCL186; type: cell-based; conditions: for IC50: Homo sapiens, CCL186, MTT, 72 h incubation, mean ± SD, n = 3, read-out: IC50 CCL-186; for selectivity ratio: IC50 CCL186/IC50 MCF7 or IC50 CCL186/IC50 HCT116: normal vs cancer cell line
Experimental: as §5, §6, §7

CYP1A1 = experiment: 7-ethoxyresorufin O-deethylase (EROD) assay, CYP1A1 induction in Hepa1c1c7 cells; type: cell-based, murine; conditions: 48 h
Experimental: Hepa1c1c7 cells were plated at a density of 10000 cells per well in a 96-well plate and cultured for 24 h. A stock solution of test compound was prepared in DMSO and serially diluted with medium to give the desired concentration in the well. The final concentration of DMSO was 0.5% v/v. The cells were incubated with test compound for 48 h, after which the medium was removed, the well washed with 200 μl of 1×phosphate-buffered saline solution (PBS) and then incubated with 5 μM 7-ethoxyresorufin and 2 mM salicylamide in 200 μl of medium at 37° C., 40 min. Readings were taken at λexcitation of 530 nm and λemission of 590 nm on a fluorometer. Fluorescence (if any) of the test compound was determined at the same wavelengths to take into account its contribution to the observed readings. Readings of empty wells (no cells, “blank”) and wells with Hepa1c1c7 cells in medium containing 0.5% DMSO but without test compound (“control”) were also determined. TCDD, a strong inducer of CYP1A1 activity, as well as BNF and sulforaphane were used as controls.
CYP1A1 induction activity was given by the expression:
Degree of induction=FCells+test compound−FBlank/FControl−FBlank
The EROD assay was used for this purpose (Burke, M. D.; Mayer, R. T., Drug Metab Dispos 1974, 2, 583). EROD activity describes the rate at which CYP1A1 caused the O-deethylation of 7-ethoxyresorufin to resorufm. […] This ratio was determined for compounds at concentrations that were approximately 4 times their CD values. A fixed concentration was not used here because it would be difficult to select this concentration in view of the large variation in NQO1 induction activities. The quotient of NQO1 and CYP1A1 induction ratios (ratio determined at the same concentration) was also obtained for each compound. Values >1 would imply greater induction of NQO1 relative to CYP1A1.

Compound	IC50 (HepG2) [nM]	viability at 10 µM (HepG2) [%]	SR(HepG2/THLE2) safety ratio (HepG2)	IC50 (HuH7) [nM]	viability at 10 µM (HuH7) [%]	SR(HuH7/THLE2) safety ratio (HuH7)	melting point [°C]	IC50 (THLE2) [µM]	NQO1 induction ratio (NQO1; 0.05 μM, read off from plot)	NQO1/CYP1A1 Quotient (NQO1; both ratios at 0.05 μM)	IC50 (Hepa1c1c7 cells) [nM]	IC50 [1] [µM]	IC50 [2] [µM]	selectivity ratio: IC50 CCL186/IC50 MCF7 or IC50 CCL186/IC50 HCT116 [2]	NQO1 induction ratio (NQO1; 0.5 μM, read off from plot)	NQO1/CYP1A1 Quotient (NQO1; both ratios at 0.5 μM)	CYP1A1 induction ratio (CYP1A1; 0.5 μM)	also measured
O=C1Nc2cc(Cl)ccc2/C1=C\c1cccc(C(F)(F)F)c1 [Compound 47, (E)-6-Chloro-3-(3-(trifluoromethyl)benzylidene)indolin-2-one]	600	1.1 ± 0.09	65.27	500	3.3 ± 0.2	21.76	204 to 207	> 10	5.20	2.17	1100	3.8 ± 0.3	6.6 ± 0.5	~1				
COc1ccc2c(c1)NC(=O)/C2=C/c1ccc(OC)c(O)c1 [Compound 45, (E)-3-(3-Hydroxy-4-methoxybenzylidene)-6-methoxyindolin-2-one]	1400	19.9 ± 1.4	3.61	8000	46.6 ± 1.8	1.54	184 to 186	> 10			9800	3.7 ± 0.3	11.3 ± 0.4					NQO1 induction ratio (NQO1; 1 μM, read off from plot of degree of induction versus concentration): 4.34; NQO1/CYP1A1 Quotient (NQO1; both ratios at 1 μM): 4.13; CYP1A1 induction ratio (CYP1A1; 1 μM): 1.05 ± 0.01
COc1ccc2c(c1)NC(=O)/C2=C/c1cccc(C(F)(F)F)c1 [Compound 48, (E)-6-Methoxy-3-(3-(trifluoromethyl)benzylidene)indolin-2-one]	400	14.5 ± 1.3	2.40	2300	27.3 ± 0.5	1.27	157 to 160	3.6			2600	1.9 ± 0.5	5.4 ± 0.3		4.22	3.10	1.36 ± 0.07	
COc1cccc(/C=C2/C(=O)Nc3cc(OC)ccc32)c1 [Compound 42, (E)-6-Methoxy-3-(3-methoxybenzylidene)indolin-2-one]	2200	20.7 ± 2	1.89	4000	49.2 ± 4	0.79	161 to 163	1.2			9800	1.2 ± 0.4	1.8 ± 0.2		3.08	2.72	1.13 ± 0.01	
O=C1Nc2cc(F)ccc2/C1=C\c1cccc(C(F)(F)F)c1 [Compound 46, (E)-6-Fluoro-3-(3-(trifluoromethyl)benzylidene)indolin-2-one]	400	4.2 ± 0.3	17.19	1100	11.3 ± 1	6.39	132 to 135	> 10	3.31	2.69	2200	8.4 ± 0.3	7.5 ± 0.7	~1				CYP1A1 induction ratio (CYP1A1; 0.05 μM): 1.23 ± 0.08; IC50 ([1]; Homo sapiens, MCF7, 72 h): < 10 µM

Reference: patent US20110269812A1, “NOVEL BENZYLIDENE-INDOLINONE AND THEIR MEDICAL AND DIAGNOSTIC USES” (Agency for Science, Technology and Research, priority 2008, published 2011)
